What follows are molecules tested against human recombinant GABAA α5β3γ2 receptor (Homo sapiens (Human), UniProt P18507+P31644) (assay: Binding assay, [3H]Ro151788 displacement on membranes of HEK cells). Conditions: 0.5 nM [3H]Ro151788, 60 minutes at 4° C., Cheng-Prusoff; read-out: hGABAA α5 Ki.
Protocol: The GABAA α5β3γ2 protein used for the receptor binding assay was derived from membranes produced from HEK cells (Millipore CYL3073) expressing the human recombinant GABAA α5β3γ2 receptor. Cells were stored and cultured in-house according to the instructions provided by the vendor (Millipor). Cell pellet was homogenized in 10 times modified Krebs Henseleit buffer (membrane preparation buffer): 20 mM Tris, 120 mM NaCl, 100 mM KCl, 25 mM CaCl2) and 25 mM MgCl2 pH=7.4 at 4° C. using Ultra Turrax (Janke&Kunkel) maximal speed for 15 seconds. The homogenate was centrifuged at 40,000 g for 30 minutes at 4° C. Supernatant was discarded and the resulting pellet was washed in membrane preparation buffer. Pellet was resuspended in membrane preparation buffer and aliquots of 1.4 mL ampulles were stored at −70° C. until use.
Receptor binding assays were performed in 96-well format in deep-well plates. For each 96-well plate one ampulle of membrane homogenate was thawed and diluted in binding buffer (50 mM Tris pH=7.4, 100 mM KCl) and 200 μL was dispensed into each well. Radioligand [^3H]Ro151788 (Perkin Elmer: NET757250UC) was prepared in binding buffer and added to each well in 50 μL volume to give final concentration of 0.5 nM. Test compounds in suitable concentration(s) were added in additional 50 μL. The final assay volume was 300 μL. Incubation was carried out for 60 minutes at 4° C. For non-specific binding 10 μM unlabeled diazepam was used. After incubation samples were filtered over UniFilter® GF/B™ using Filtermate Harvester (Perkin Elmer) and washed with 5×1 mL binding buffer. The plate was dried at 40° C. for an hour and 40 μL Microscint (Perkin Elmer) scintillation cocktail was added to each well. The plate was read in Microbeta (Perkin Elmer).
The specific radioligand binding (SB) was defined as the difference between total binding (Tot) and the non-specific binding (NSB). Results are expressed as a percent inhibition of specific binding obtained in the presence of compound of interest.
For IC50 and Ki determination a minimum of six drug concentrations in triplicate were used. […] Ki values (i.e. inhibition constants) were calculated using the Cheng-Prusoff equation Ki=IC50/[1+(L/KD)], where [L] is the radioligand concentration and KD the affinity of the labelled ligand for receptor. KD was determined from the Saturation analyses.

Chain of human recombinant GABAA α5β3γ2 receptor (P31644 32-462): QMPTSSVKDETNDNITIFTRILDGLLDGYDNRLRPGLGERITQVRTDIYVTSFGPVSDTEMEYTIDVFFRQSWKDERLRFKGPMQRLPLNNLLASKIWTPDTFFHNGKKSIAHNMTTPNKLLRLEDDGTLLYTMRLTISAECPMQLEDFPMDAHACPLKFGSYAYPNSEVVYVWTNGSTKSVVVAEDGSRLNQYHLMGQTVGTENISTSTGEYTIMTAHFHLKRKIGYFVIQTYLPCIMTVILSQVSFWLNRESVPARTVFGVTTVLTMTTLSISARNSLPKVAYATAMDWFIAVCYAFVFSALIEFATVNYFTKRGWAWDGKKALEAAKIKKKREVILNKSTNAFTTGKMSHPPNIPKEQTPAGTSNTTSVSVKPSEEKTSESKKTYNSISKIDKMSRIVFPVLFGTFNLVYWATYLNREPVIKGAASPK
Chain of human recombinant GABAA α5β3γ2 receptor (P28472 26-473 partner): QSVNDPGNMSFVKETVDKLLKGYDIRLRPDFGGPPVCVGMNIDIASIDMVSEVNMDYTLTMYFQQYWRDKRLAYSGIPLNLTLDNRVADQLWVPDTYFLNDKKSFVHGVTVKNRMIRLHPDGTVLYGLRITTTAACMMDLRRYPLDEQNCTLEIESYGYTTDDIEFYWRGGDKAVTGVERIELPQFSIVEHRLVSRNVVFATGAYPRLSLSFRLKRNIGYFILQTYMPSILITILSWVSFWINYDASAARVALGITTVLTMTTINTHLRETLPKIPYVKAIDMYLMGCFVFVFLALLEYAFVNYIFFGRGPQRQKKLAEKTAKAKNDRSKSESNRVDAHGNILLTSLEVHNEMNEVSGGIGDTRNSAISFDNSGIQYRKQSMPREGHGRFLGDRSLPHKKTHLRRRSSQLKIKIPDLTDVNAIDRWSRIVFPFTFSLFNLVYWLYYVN
Chain of human recombinant GABAA α5β3γ2 receptor (P18507 40-475): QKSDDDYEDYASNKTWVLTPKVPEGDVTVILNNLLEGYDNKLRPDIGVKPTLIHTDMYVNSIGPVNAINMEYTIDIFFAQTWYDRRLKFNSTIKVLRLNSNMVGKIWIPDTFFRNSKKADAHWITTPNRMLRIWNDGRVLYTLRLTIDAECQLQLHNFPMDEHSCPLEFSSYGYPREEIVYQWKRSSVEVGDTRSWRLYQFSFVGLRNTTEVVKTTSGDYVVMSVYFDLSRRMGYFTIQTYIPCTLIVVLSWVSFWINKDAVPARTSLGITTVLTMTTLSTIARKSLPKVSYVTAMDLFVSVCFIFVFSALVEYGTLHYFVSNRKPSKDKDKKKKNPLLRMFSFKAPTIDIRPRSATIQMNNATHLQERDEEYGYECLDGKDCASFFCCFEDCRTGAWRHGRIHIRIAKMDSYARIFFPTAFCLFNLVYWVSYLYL

In order of rising Ki:
1. CC(=O)N1Cc2ccc(OCc3c(-c4ccc(F)cc4)noc3C)nc2C1 [Example 50, 1-(2-{[3-(4-fluorophenyl)-5-methyl-1,2-oxazol-4-yl]methoxy}-5,7-dihydro-6H-pyrrolo[3,4-b]pyridin-6-yl)ethanone]  0.8 nM
2. Cc1onc(-c2ccc(F)cc2)c1COc1ccc2c(n1)CN(C(=O)CS(C)(=O)=O)C2 [Example 49, 1-(2-{[3-(4-fluorophenyl)-5-methyl-1,2-oxazol-4-yl]methoxy}-5H,6H,7H-pyrrolo[3,4-b]pyridin-6-yl)-2-methanesulfonylethan-1-one]  1.2 nM
3. CC(=O)N1Cc2ccc(OCc3c(C)nnn3-c3ccc(Cl)cc3)nc2C1 [Example 60, 1-(2-{[1-(4-chlorophenyl)-4-methyl-1H-1,2,3-triazol-5-yl]methoxy}-5,7-dihydro-6H-pyrrolo[3,4-b]pyridin-6-yl)ethanone]  1.2 nM
4. Cc1nnn(-c2ccc(F)cc2)c1COc1ccc2c(n1)CN(C(=O)CF)C2 [Example 54, 2-fluoro-1-(2-{[1-(4-fluorophenyl)-4-methyl-1H-1,2,3-triazol-5-yl]methoxy}-5,7-dihydro-6H-pyrrolo[3,4-b]pyridin-6-yl)ethanone]  5.3 nM
5. Cc1nnn(-c2ccc(F)cc2)c1COc1ccc2c(n1)CN(C(=O)C1CCOC1)C2 (stereo not drawn) [Example 62, 1-(4-fluorophenyl)-4-methyl-5-({[6-(oxolane-3-carbonyl)-5H,6H,7H-pyrrolo[3,4-b]pyridin-2-yl]oxy}methyl)-1H-1,2,3-triazole]  5.7 nM
6. CC(=O)N1Cc2ccc(OCc3c(-c4ccc(Cl)cc4)nnn3C)nc2C1 [Example 68, 1-(2-{[4-(4-chlorophenyl)-1-methyl-1H-1,2,3-triazol-5-yl]methoxy}-5,7-dihydro-6H-pyrrolo[3,4-b]pyridin-6-yl)ethanone]  7.5 nM
7. Cn1nnc(-c2ccc(F)cc2)c1COc1ccc2c(n1)CN(C(=O)CF)C2 [Example 70, 2-fluoro-1-(2-{[4-(4-fluorophenyl)-1-methyl-1H-1,2,3-triazol-5-yl]methoxy}-5,7-dihydro-6H-pyrrolo[3,4-b]pyridin-6-yl)ethanone]  9.2 nM
8. Cc1nnn(-c2ccc(F)cc2)c1COc1ccc2c(n1)CN(C(=O)C1CCCOC1)C2 (stereo not drawn) [Example 63, 1-(4-fluorophenyl)-4-methyl-5-({[6-(oxane-3-carbonyl)-5H,6H,7H-pyrrolo[3,4-b]pyridin-2-yl]oxy}methyl)-1H-1,2,3-triazole]  9.5 nM
9. Cc1nnn(-c2ccc(F)cc2)c1COc1ccc2c(n1)CN(C(=O)C(F)F)C2 [Example 53, 2,2-difluoro-1-(2-{[1-(4-fluorophenyl)-4-methyl-1H-1,2,3-triazol-5-yl]methoxy}-5,7-dihydro-6H-pyrrolo[3,4-b]pyridin-6-yl)ethanone]  11 nM
10. COCC(=O)N1CCc2nc(OCc3c(C)nnn3-c3ccc(Cl)cc3)ccc2C1 [Example 42, 1-(2-{[1-(4-chlorophenyl)-4-methyl-1H-1,2,3-triazol-5-yl]methoxy}-5,6,7,8-tetrahydro-1,6-naphthyridin-6-yl)-2-methoxyethan-1-one]  13 nM
11. Cc1nnn(-c2ccc(F)cc2)c1COc1ccc2c(n1)CN(C(=O)C1CCOCC1)C2 [Example 55, 1-(4-fluorophenyl)-4-methyl-5-({[6-(oxane-4-carbonyl)-5H,6H,7H-pyrrolo[3,4-b]pyridin-2-yl]oxy}methyl)-1H-1,2,3-triazole]  13 nM
12. Cc1nnn(-c2ccc(F)cc2)c1COc1ccc2c(n1)CN(C(=O)C(C)C)C2 [Example 58, 1-(2-{[1-(4-fluorophenyl)-4-methyl-1H-1,2,3-triazol-5-yl]methoxy}-5H,6H,7H-pyrrolo[3,4-b]pyridin-6-yl)-2-methylpropan-1-one]  13 nM
13. Cc1nnn(-c2ccc(F)cc2)c1COc1ccc2c(n1)CN(C(=O)C1CCC1)C2 [Example 57, 5-[({6-cyclobutanecarbonyl-5H,6H,7H-pyrrolo[3,4-b]pyridin-2-yl}oxy)methyl]-1-(4-fluorophenyl)-4-methyl-1H-1,2,3-triazole]  14 nM
14. CC(=O)N1Cc2ccc(OCc3c(-c4ccc(F)cc4)nnn3C)nc2C1 [Example 67, 1-(2-{[4-(4-fluorophenyl)-1-methyl-1H-1,2,3-triazol-5-yl]methoxy}-5,7-dihydro-6H-pyrrolo[3,4-b]pyridin-6-yl)ethanone]  20 nM
15. Cc1nnn(-c2ccc(F)cc2)c1COc1ccc2c(n1)CN(C(=O)c1ccncc1)C2 [Example 64, 4-(2-{[1-(4-fluorophenyl)-4-methyl-1H-1,2,3-triazol-5-yl]methoxy}-5H,6H,7H-pyrrolo[3,4-b]pyridine-6-carbonyl)pyridine]  25 nM
16. CCC(=O)N1Cc2ccc(OCc3c(-c4ccc(F)cc4)nnn3C)nc2C1 [Example 69, 1-(2-{[4-(4-fluorophenyl)-1-methyl-1H-1,2,3-triazol-5-yl]methoxy}-5,7-dihydro-6H-pyrrolo[3,4-b]pyridin-6-yl)propan-1-one]  25 nM
17. Cc1nnn(-c2ccc(F)cc2)c1COc1ccc2c(n1)CN(C(=O)c1cccnc1)C2 [Example 65, 3-(2-{[1-(4-fluorophenyl)-4-methyl-1H-1,2,3-triazol-5-yl]methoxy}-5H,6H,7H-pyrrolo[3,4-b]pyridine-6-carbonyl)pyridine]  28 nM
18. CC(C)C(=O)N1Cc2ccc(OCc3c(-c4ccc(F)cc4)nnn3C)nc2C1 [Example 72, 1-(2-{[4-(4-fluorophenyl)-1-methyl-1H-1,2,3-triazol-5-yl]methoxy}-5H,6H,7H-pyrrolo[3,4-b]pyridin-6-yl)-2-methylpropan-1-one]  29 nM
19. CCN1CC(C(=O)N2CCc3nc(OCc4c(C)nnn4-c4ccc(F)cc4)ccc3C2)CC1=O (stereo not drawn) [Example 43, 1-ethyl-4-(2-{[1-(4-fluorophenyl)-4-methyl-1H-1,2,3-triazol-5-yl]methoxy}-5,6,7,8-tetrahydro-1,6-naphthyridine-6-carbonyl)pyrrolidin-2-one]  30 nM
20. Cc1nnn(-c2ccc(F)cc2)c1COc1ccc2c(n1)CN(C(=O)C(C)(C)C)C2 [Example 59, 1-(2-{[1-(4-fluorophenyl)-4-methyl-1H-1,2,3-triazol-5-yl]methoxy}-5H,6H,7H-pyrrolo[3,4-b]pyridin-6-yl)-2,2-dimethylpropan-1-one]  31 nM
21. Cc1onc(-c2ccc(F)cc2)c1COc1ccc2c(n1)CCN(C(=O)CCS(C)(=O)=O)C2 [Example 48, 1-(2-{[3-(4-fluorophenyl)-5-methyl-1,2-oxazol-4-yl]methoxy}-5,6,7,8-tetrahydro-1,6-naphthyridin-6-yl)-3-methanesulfonylpropan-1-one]  33 nM
22. CCC(=O)N1Cc2ccc(OCc3c(C)nnn3-c3ccc(F)cc3)nc2C1 [Example 52, 1-(2-{[1-(4-fluorophenyl)-4-methyl-1H-1,2,3-triazol-5-yl]methoxy}-5,7-dihydro-6H-pyrrolo[3,4-b]pyridin-6-yl)propan-1-one]  37 nM
23. Cc1nnn(-c2ccc(F)cc2)c1COc1ccc2c(n1)CCN(C(=O)C1CC(=O)N(C(C)C)C1)C2 (stereo not drawn) [Example 44, 4-(2-{[1-(4-fluorophenyl)-4-methyl-1H-1,2,3-triazol-5-yl]methoxy}-5,6,7,8-tetrahydro-1,6-naphthyridine-6-carbonyl)-1-(propan-2-yl)pyrrolidin-2-one]  54 nM
24. Cn1nnc(-c2ccc(F)cc2)c1COc1ccc2c(n1)CN(C(=O)C1CCOC1)C2 (stereo not drawn) [Example 71, 4-(4-fluorophenyl)-1-methyl-5-({[6-(oxolane-3-carbonyl)-5H,6H,7H-pyrrolo[3,4-b]pyridin-2-yl]oxy}methyl)-1H-1,2,3-triazole]  56 nM
25. Cc1nnn(-c2ccc(F)cc2)c1COc1ccc2c(n1)CN(C(=O)c1ccccn1)C2 [Example 66, 2-(2-{[1-(4-fluorophenyl)-4-methyl-1H-1,2,3-triazol-5-yl]methoxy}-5H,6H,7H-pyrrolo[3,4-b]pyridine-6-carbonyl)pyridine]  59 nM
26. Cc1nnn(-c2ccc(F)cc2)c1COc1ccc2c(n1)CCN(C(=O)[C@H]1CCC(=O)N1C)C2 [Example 41, (5R)-5-(2-{[1-(4-fluorophenyl)-4-methyl-1H-1,2,3-triazol-5-yl]methoxy}-5,6,7,8-tetrahydro-1,6-naphthyridine-6-carbonyl)-1-methylpyrrolidin-2-one]  67 nM
27. Cc1nnn(-c2ccc(F)cc2)c1COc1ccc2c(n1)CCN(C(=O)C1CCC(=O)N(C)C1)C2 (stereo not drawn) [Example 46, 5-(2-{[1-(4-fluorophenyl)-4-methyl-1H-1,2,3-triazol-5-yl]methoxy}-5,6,7,8-tetrahydro-1,6-naphthyridine-6-carbonyl)-1-methylpiperidin-2-one]  84 nM
